{"source": "patent US20230310399A1", "about": "“COMBINATORIAL THERAPEUTIC SYSTEMS AND METHODS THAT INCLUDE SYSTEMIC, CENTRALLY AND PERIPHERALLY ACTING ANALGESICS” (COGNIFISENSE, INC., priority 2020, published 2023)", "tested_on": "patient's amount of pain", "test": "Potential patient responses to combinatorial therapy: amount of pain over time (FIGS. 5A-5C)", "assay_type": "in vivo, patients", "settings": "combinatorial therapeutic system with VRNT; potential individual patient responses", "text": "FIGS. 5A-5C illustrate exemplary graphs of potential effects of combinatorial therapeutic systems/methods employing oliceridine and VRNT on a patient's amount of pain over time; and\nThe synergistic effects of the disclosed combinatorial therapeutic systems/methods can be exemplified in a plurality of responses. For example, FIGS. 5A-5C illustrate a combinatorial therapy using oliceridine (as the systemic, centrally and peripherally acting analgesic) and VRNT (as the artificial sensory experience) with different potential patient responses. As many, if not all, patients may experience the synergistic benefits afforded by the disclosed combinatorial therapeutic systems/methods as an average benefit, the individual-specific responses may be different.", "note": "“Also recorded” adds a separate entry of the source."}
{"smiles": "COc1ccsc1CNCC[C@@]1(c2ccccn2)CCOC2(CCCC2)C1", "note": "[oliceridine]", "values": [{"measurement": "patient's amount of pain over time", "value": "constant or linear decrease in pain over time; also recorded: cyclical decrease and increase in pain levels over time with an overall decreasing pain level; also recorded: stepwise reduction in pain levels"}]}
